Measurements published in ChEMBL document CHEMBL1126314, “A dideazatetrahydrofolate analogue lacking a chiral center at C-6, N-[4-[2-(2-amino-3,4-dihydro-4-oxo-7H-pyrrolo[2,3-d]pyrimidin-5-yl)ethyl]benzoyl]-L-glutamic acid, is an inhibitor of thymidylate synthase” (J Med Chem, 1992).

Key:
[1] = First-order rate constant was determined; assay type: ADME
Thymidylate synthase = Thymidylate synthase (Mus musculus, UniProt P07607); test: Compound was evaluated for competitive inhibition of recombinant mouse thymidylate synthase
[2] = First-order rate constant of the compound; assay type: ADME
[3] = Km was determined; assay type: ADME
CCRF-CEM = test: Compound was evaluated for the half-maximal inhibition against human CCRF-CEM lymphoblastic leukemic cell growth; assay type: functional, cell-based
L1210 = test: Compound was evaluated for the half-maximal inhibition against mouse L1210 leukemic cell growth; assay type: functional, cell-based

Chain of Thymidylate synthase (P07607 whole entry): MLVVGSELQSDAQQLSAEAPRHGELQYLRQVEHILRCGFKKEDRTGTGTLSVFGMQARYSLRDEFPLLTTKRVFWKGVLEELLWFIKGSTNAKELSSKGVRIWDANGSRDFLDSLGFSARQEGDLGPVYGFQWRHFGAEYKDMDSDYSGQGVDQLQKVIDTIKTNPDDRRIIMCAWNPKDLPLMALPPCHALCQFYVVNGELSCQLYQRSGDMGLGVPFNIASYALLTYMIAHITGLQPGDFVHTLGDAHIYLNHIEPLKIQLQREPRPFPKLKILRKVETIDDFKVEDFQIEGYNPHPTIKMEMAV

SMILES	Rate constant [1]	Ki (Thymidylate synthase) [nM]	Rate constant [2]	Km [3] [µM]	IC50 (CCRF-CEM) [nM]	IC50 (L1210) [nM]
Nc1nc(N)c2nc(CNc3ccc(C(=O)N[C@@H](CCC(=O)O)C(=O)O)cc3)cnc2n1 [AMINOPTERIN]	10.1	–	–	–	–	–
Nc1nc(O)c2c(n1)NCC(CCc1ccc(C(=O)NC(CCC(=O)O)C(=O)O)cc1)C2 (centres undefined)	–	30	32	–	–	–
Nc1nc2[nH]cc(CCc3ccc(C(=O)N[C@@H](CCC(=O)O)C(=O)O)cc3)c2c(=O)[nH]1 [PEMETREXED]	–	340	400	0.8	16	22
CN(Cc1cnc2nc(N)nc(N)c2n1)c1ccc(C(=O)N[C@@H](CCC(=O)O)C(=O)O)cc1 [METHOTREXATE]	–	–	0.9	–	–	–
